± gives the uncertainty stated by the source.
Experiment: xn = mol fraction of the nth substance listed
Details: 101 kPa

CCC[n+]1ccccc1.F[B-](F)(F)F + CO
Details | viscosity [mPa·s]
303.15 K, x1 = 0.8956 | 59.95 ± 1.1
323.15 K, x1 = 0.3918 | 4.475 ± 0.1

O=C(O)c1cc(O)c(O)c(O)c1 + CO
viscosity [mPa·s]
Details | 293.15 K | 298.15 K | 303.15 K | 308.15 K | 313.15 K
x1 = 0.0019 | 0.634 ± 0.017 | 0.595 ± 0.016 | 0.551 ± 0.015 | 0.517 ± 0.014 | 0.491 ± 0.013
x1 = 0.0038 | 0.664 ± 0.018 | 0.62 ± 0.016 | 0.576 ± 0.015 | 0.542 ± 0.014 | 0.505 ± 0.013
x1 = 0.0058 | 0.699 ± 0.019 | 0.66 ± 0.018 | 0.604 ± 0.016 | 0.562 ± 0.015 | 0.528 ± 0.014
x1 = 0.0078 | 0.734 ± 0.019 | 0.684 ± 0.018 | 0.635 ± 0.017 | 0.591 ± 0.016 | 0.55 ± 0.015

Oc1ccccc1Cl + CO
Details | viscosity [mPa·s]
303.15 K, x1 = 0.2447 | 1.911 ± 0.86

CC(C)c1ccccc1 + COC(=O)c1ccccc1
viscosity [mPa·s]
Details | x2 = 0.1127 | x2 = 0.2209 | x2 = 0.3251 | x2 = 0.429 | x2 = 0.5302 | x2 = 0.6213 | x2 = 0.7199 | x2 = 0.8144 | x2 = 0.9082
303.15 K | 0.729 ± 0.011 | 0.795 ± 0.011 | 0.865 ± 0.012 | 0.94 ± 0.01 | 1.029 ± 0.012 | 1.128 ± 0.013 | 1.244 ± 0.013 | 1.364 ± 0.014 | 1.502 ± 0.015
313.15 K | 0.649 ± 0.011 | 0.694 ± 0.011 | 0.75 ± 0.01 | 0.819 ± 0.012 | 0.883 ± 0.012 | 0.961 ± 0.012 | 1.044 ± 0.013 | 1.132 ± 0.013 | 1.235 ± 0.014

CCCCOC(C)=O + COCCO
viscosity [mPa·s]
Details | x2 = 0.0967 | x2 = 0.1995 | x2 = 0.2988 | x2 = 0.3986 | x2 = 0.4983 | x2 = 0.6028 | x2 = 0.697 | x2 = 0.7987 | x2 = 0.9012
298.15 K | 0.703 ± 0.059 | 0.736 ± 0.062 | 0.787 ± 0.066 | 0.841 ± 0.07 | 0.922 ± 0.077 | 1.01 ± 0.084 | 1.13 ± 0.094 | 1.285 ± 0.11 | 1.48 ± 0.12
303.15 K | 0.656 ± 0.055 | 0.686 ± 0.057 | 0.731 ± 0.061 | 0.78 ± 0.065 | 0.849 ± 0.071 | 0.928 ± 0.077 | 1.034 ± 0.086 | 1.17 ± 0.097 | 1.34 ± 0.11
308.15 K | 0.615 ± 0.052 | 0.641 ± 0.054 | 0.68 ± 0.057 | 0.723 ± 0.06 | 0.785 ± 0.066 | 0.855 ± 0.071 | 0.948 ± 0.079 | 1.066 ± 0.089 | 1.217 ± 0.1

Source: the CheMixHub viscosity set
